{"source": "ChEMBL document CHEMBL3769332", "about": "“Affinity-Based Fluorescence Polarization Assay for High-Throughput Screening of Prolyl Hydroxylase 2 Inhibitors” (ACS Med Chem Lett, 2015)", "target": "Egl nine homolog 1 (Homo sapiens, UniProt Q9GZT9)", "sequence (Q9GZT9 whole entry)": "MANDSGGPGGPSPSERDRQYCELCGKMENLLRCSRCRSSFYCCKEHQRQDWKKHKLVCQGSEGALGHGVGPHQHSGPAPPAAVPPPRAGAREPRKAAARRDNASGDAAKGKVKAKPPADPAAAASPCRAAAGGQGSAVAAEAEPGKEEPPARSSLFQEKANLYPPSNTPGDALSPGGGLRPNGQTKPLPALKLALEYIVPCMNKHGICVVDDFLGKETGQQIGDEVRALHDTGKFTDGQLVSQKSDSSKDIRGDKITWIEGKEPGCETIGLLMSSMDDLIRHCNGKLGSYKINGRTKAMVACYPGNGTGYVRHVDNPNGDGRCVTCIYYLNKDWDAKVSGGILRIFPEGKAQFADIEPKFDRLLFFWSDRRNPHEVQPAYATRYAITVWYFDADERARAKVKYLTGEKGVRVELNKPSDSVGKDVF"}
{"compound": "Cc1ccc(-c2cnc(C(=O)NCC(=O)O)c(O)c2)cc1", "values": [{"measurement": "IC50", "result": 890, "unit": "nM"}]}
{"compound": "O=c1c(-n2ccnn2)c[nH]n1-c1cc(N2CCOCC2)ncn1", "note": "[MOLIDUSTAT]", "values": [{"measurement": "IC50", "result": 876, "unit": "nM"}]}
